Data from patent publication US20020001582A1, “Methods and compositions for inhibiting microbial growth” (priority 1999, published 2002).

System: Fusarium
Assay: Lysozyme against Fusarium, plug in PD broth
Assay type: cell-based
Procedure: PD broth was prepared and autoclaved in dilution bottles (100 ml) and allowed to cool. Required amounts of lysozyme were added into the bottles and dissolved. […] A square of Fusarium (5-10 mm square “plug”) was cut and placed in/near the center of each dish. The plates were incubated at room temperature for 2 weeks. The trial was carried out in triplicate and was repeated three times.
The fungal growth was quantified by measuring the diameter of Fusarium growth and the coverage of the plates by the fungus. The measurements (given in mm) also include the size of the inoculum plug inserted into the plate of media. The color change and the change in the physical appearance (fuzzy, not fuzzy) were also monitored. The Fusarium growth is pink to dark pink. All the numbers shown are the averages of three replicates for each treatment. The diameter of the plate was approximately 85 mm.

lysozyme: type c egg white lysozyme, enzyme of approximately 129 amino acids; commercially available from Canadian Inovatech, Inc.
Fusarium growth (250 ppm, broth turned yellow after 10 days): quite limited
diameter of Fusarium growth (Batch 1, 25 ppm, day 0 (inoculum plug)): 9.3 mm
growth, color and physical appearance (Batch 1, 25 ppm, day 4): Confluent, pink
growth, color and physical appearance (Batch 1, 25 ppm, day 7): Confluent, dark
growth, color and physical appearance (Batch 1, 25 ppm, day 11): Confluent, dark
diameter of Fusarium growth (Batch 1, 50 ppm, day 0 (inoculum plug)): 9.7 mm
growth, color and physical appearance (Batch 1, 50 ppm, day 4): Confluent, pink
growth, color and physical appearance (Batch 1, 50 ppm, day 7): Confluent, dark
growth, color and physical appearance (Batch 1, 50 ppm, day 11): Confluent, dark
diameter of Fusarium growth (Batch 1, 75 ppm, day 0 (inoculum plug)): 8.3 mm
coverage of the plates by the fungus (Batch 1, 75 ppm, day 4): 36.7% covered
diameter of Fusarium growth (Batch 1, 75 ppm, day 4): 23.7 mm
coverage of the plates by the fungus (Batch 1, 75 ppm, day 7): 60% covered
diameter of Fusarium growth (Batch 1, 75 ppm, day 7): 27.0 mm
growth, color and physical appearance (Batch 1, 75 ppm, day 11): Confluent, dark
diameter of Fusarium growth (Batch 1, 100 ppm, day 0 (inoculum plug)): 8.0 mm
coverage of the plates by the fungus (Batch 1, 100 ppm, day 4): 26.7% covered
diameter of Fusarium growth (Batch 1, 100 ppm, day 4): 23.7 mm
coverage of the plates by the fungus (Batch 1, 100 ppm, day 7): 46.7% covered
diameter of Fusarium growth (Batch 1, 100 ppm, day 7): 28.3 mm
coverage of the plates by the fungus (Batch 1, 100 ppm, day 11): 80% covered
growth, color and physical appearance (Batch 1, 100 ppm, day 11): Dark pink
diameter of Fusarium growth (Batch 1, 250 ppm, day 0 (inoculum plug)): 8.7 mm
diameter of Fusarium growth (Batch 1, 250 ppm, day 4): 16.0 mm
diameter of Fusarium growth (Batch 1, 250 ppm, day 7): 22.0 mm
coverage of the plates by the fungus (Batch 1, 250 ppm, day 11): 29.7% covered
growth, color and physical appearance (Batch 1, 250 ppm, day 11): Yellow broth
diameter of Fusarium growth (Batch 2, 25 ppm, day 0 (inoculum plug)): 7.8 mm
coverage of the plates by the fungus (Batch 2, 25 ppm, day 4): 76.7%
growth, color and physical appearance (Batch 2, 25 ppm, day 4): dark peach
coverage of the plates by the fungus (Batch 2, 25 ppm, day 6): 88.3%
growth, color and physical appearance (Batch 2, 25 ppm, day 6): pink
coverage of the plates by the fungus (Batch 2, 25 ppm, day 8): 91.7%
growth, color and physical appearance (Batch 2, 25 ppm, day 8): dark pink
coverage of the plates by the fungus (Batch 2, 25 ppm, day 11): 91.7%
growth, color and physical appearance (Batch 2, 25 ppm, day 11): dark pink
coverage of the plates by the fungus (Batch 2, 25 ppm, day 14): 91.7%
growth, color and physical appearance (Batch 2, 25 ppm, day 14): dark pink,
diameter of Fusarium growth (Batch 2, 50 ppm, day 0 (inoculum plug)): 7.5 mm
coverage of the plates by the fungus (Batch 2, 50 ppm, day 4): 43.3%
growth, color and physical appearance (Batch 2, 50 ppm, day 4): peach
coverage of the plates by the fungus (Batch 2, 50 ppm, day 6): 60%
growth, color and physical appearance (Batch 2, 50 ppm, day 6): pink
coverage of the plates by the fungus (Batch 2, 50 ppm, day 8): 61.7%
growth, color and physical appearance (Batch 2, 50 ppm, day 8): dark pink
coverage of the plates by the fungus (Batch 2, 50 ppm, day 11): 68.3%
growth, color and physical appearance (Batch 2, 50 ppm, day 11): dark pink
coverage of the plates by the fungus (Batch 2, 50 ppm, day 14): 55.0%
growth, color and physical appearance (Batch 2, 50 ppm, day 14): dark pink,
diameter of Fusarium growth (Batch 2, 75 ppm, day 0 (inoculum plug)): 8.0 mm
coverage of the plates by the fungus (Batch 2, 75 ppm, day 4): 13.3%
diameter of Fusarium growth (Batch 2, 75 ppm, day 4): 21.3 mm
growth, color and physical appearance (Batch 2, 75 ppm, day 4): peach
coverage of the plates by the fungus (Batch 2, 75 ppm, day 6): 40%
growth, color and physical appearance (Batch 2, 75 ppm, day 6): pink
coverage of the plates by the fungus (Batch 2, 75 ppm, day 8): 46.7%
growth, color and physical appearance (Batch 2, 75 ppm, day 8): pink
coverage of the plates by the fungus (Batch 2, 75 ppm, day 11): 61.7%
growth, color and physical appearance (Batch 2, 75 ppm, day 11): dark pink
coverage of the plates by the fungus (Batch 2, 75 ppm, day 14): 68.3%
growth, color and physical appearance (Batch 2, 75 ppm, day 14): dark pink,
diameter of Fusarium growth (Batch 2, 100 ppm, day 0 (inoculum plug)): 7.8 mm
diameter of Fusarium growth (Batch 2, 100 ppm, day 4): 22.3 mm
growth, color and physical appearance (Batch 2, 100 ppm, day 4): peach
diameter of Fusarium growth (Batch 2, 100 ppm, day 6): 20.0 mm
growth, color and physical appearance (Batch 2, 100 ppm, day 6): light peach
coverage of the plates by the fungus (Batch 2, 100 ppm, day 8): 30.3%
growth, color and physical appearance (Batch 2, 100 ppm, day 8): pink
diameter of Fusarium growth (Batch 2, 100 ppm, day 11): 37 mm
growth, color and physical appearance (Batch 2, 100 ppm, day 11): pink/yellow
diameter of Fusarium growth (Batch 2, 100 ppm, day 14): 42.7 mm
growth, color and physical appearance (Batch 2, 100 ppm, day 14): pink, fuzzy
diameter of Fusarium growth (Batch 2, 250 ppm, day 0 (inoculum plug)): 7.3 mm
diameter of Fusarium growth (Batch 2, 250 ppm, day 4): 17.0 mm
growth, color and physical appearance (Batch 2, 250 ppm, day 4): light peach
diameter of Fusarium growth (Batch 2, 250 ppm, day 6): 19.7 mm
growth, color and physical appearance (Batch 2, 250 ppm, day 6): very light
diameter of Fusarium growth (Batch 2, 250 ppm, day 8): 22 mm
growth, color and physical appearance (Batch 2, 250 ppm, day 8): dark peach
diameter of Fusarium growth (Batch 2, 250 ppm, day 11): 25.7 mm
growth, color and physical appearance (Batch 2, 250 ppm, day 11): yellow broth
diameter of Fusarium growth (Batch 2, 250 ppm, day 14): 35.0 mm
growth, color and physical appearance (Batch 2, 250 ppm, day 14): pink, fuzzy
diameter of Fusarium growth (Batch 3, 25 ppm, day 0 (inoculum plug)): 8.2 mm
coverage of the plates by the fungus (Batch 3, 25 ppm, day 4): 25% covered
diameter of Fusarium growth (Batch 3, 25 ppm, day 4): 26.3 mm
growth, color and physical appearance (Batch 3, 25 ppm, day 4): peach
coverage of the plates by the fungus (Batch 3, 25 ppm, day 7): 33.3% covered
diameter of Fusarium growth (Batch 3, 25 ppm, day 7): 24.7 mm
growth, color and physical appearance (Batch 3, 25 ppm, day 7): pink, fuzzy
coverage of the plates by the fungus (Batch 3, 25 ppm, day 11): 38.3%
diameter of Fusarium growth (Batch 3, 25 ppm, day 11): 31.3 mm
growth, color and physical appearance (Batch 3, 25 ppm, day 11): pink, fuzzy
coverage of the plates by the fungus (Batch 3, 25 ppm, day 14): 45.0% covered,
diameter of Fusarium growth (Batch 3, 25 ppm, day 14): 32.0 mm
growth, color and physical appearance (Batch 3, 25 ppm, day 14): pink, fuzzy
diameter of Fusarium growth (Batch 3, 50 ppm, day 0 (inoculum plug)): 7.5 mm
coverage of the plates by the fungus (Batch 3, 50 ppm, day 4): 28.3% covered
diameter of Fusarium growth (Batch 3, 50 ppm, day 4): 22.7 mm
growth, color and physical appearance (Batch 3, 50 ppm, day 4): peach
coverage of the plates by the fungus (Batch 3, 50 ppm, day 7): 41.7% covered
diameter of Fusarium growth (Batch 3, 50 ppm, day 7): 25.7 mm
growth, color and physical appearance (Batch 3, 50 ppm, day 7): pink, fuzzy
coverage of the plates by the fungus (Batch 3, 50 ppm, day 11): 41.7%
diameter of Fusarium growth (Batch 3, 50 ppm, day 11): 28.0 mm
growth, color and physical appearance (Batch 3, 50 ppm, day 11): pink, fuzzy
coverage of the plates by the fungus (Batch 3, 50 ppm, day 14): 48.3% covered,
diameter of Fusarium growth (Batch 3, 50 ppm, day 14): 29.3 mm
growth, color and physical appearance (Batch 3, 50 ppm, day 14): pink, fuzzy
diameter of Fusarium growth (Batch 3, 75 ppm, day 0 (inoculum plug)): 8.2 mm
diameter of Fusarium growth (Batch 3, 75 ppm, day 4): 25.2 mm
growth, color and physical appearance (Batch 3, 75 ppm, day 4): peach
diameter of Fusarium growth (Batch 3, 75 ppm, day 7): 32.7 mm
growth, color and physical appearance (Batch 3, 75 ppm, day 7): pink, fuzzy
diameter of Fusarium growth (Batch 3, 75 ppm, day 11): 41.0 mm
growth, color and physical appearance (Batch 3, 75 ppm, day 11): pink, fuzzy
coverage of the plates by the fungus (Batch 3, 75 ppm, day 14): 38.1% covered,
diameter of Fusarium growth (Batch 3, 75 ppm, day 14): 43.7 mm
growth, color and physical appearance (Batch 3, 75 ppm, day 14): pink, fuzzy
diameter of Fusarium growth (Batch 3, 100 ppm, day 0 (inoculum plug)): 8.7 mm
diameter of Fusarium growth (Batch 3, 100 ppm, day 4): 21.7 mm
growth, color and physical appearance (Batch 3, 100 ppm, day 4): peach
diameter of Fusarium growth (Batch 3, 100 ppm, day 7): 25.0 mm
growth, color and physical appearance (Batch 3, 100 ppm, day 7): pink, fuzzy
diameter of Fusarium growth (Batch 3, 100 ppm, day 11): 26.0 mm
growth, color and physical appearance (Batch 3, 100 ppm, day 11): pink, fuzzy
coverage of the plates by the fungus (Batch 3, 100 ppm, day 14): 34.9% covered,
diameter of Fusarium growth (Batch 3, 100 ppm, day 14): 26.7 mm
growth, color and physical appearance (Batch 3, 100 ppm, day 14): pink, fuzzy
diameter of Fusarium growth (Batch 3, 250 ppm, day 0 (inoculum plug)): 7.3 mm
diameter of Fusarium growth (Batch 3, 250 ppm, day 4): 12.2 mm
growth, color and physical appearance (Batch 3, 250 ppm, day 4): yellow
diameter of Fusarium growth (Batch 3, 250 ppm, day 7): 20 mm
growth, color and physical appearance (Batch 3, 250 ppm, day 7): peach, fuzzy
diameter of Fusarium growth (Batch 3, 250 ppm, day 11): 29.7 mm
diameter of Fusarium growth (Batch 3, 250 ppm, day 14): 38.7 mm
growth, color and physical appearance (Batch 3, 250 ppm, day 14): peach with yellow
inhibition of Fusarium (concentrations lower than 250 ppm, not as effective): some inhibition
